Experimental data published in patent US8846363B2, “Compositions of and methods of using sulfatases from Flavobacterium heparinum” (priority 2007, dated 2014).
Entries after “also recorded” stand apart in the source; their conditions may differ.

Key:
[1] = molecular target: T1, Flavobacterium heparinum 6-O-sulfatase (ORF B), recombinant, NH2-terminal truncation lacking signal sequence, SEQ ID NO: 2 (Pedobacter heparinus, UniProt C6Y1N4); assay: Inhibition of 6-O-sulfatase activity (sulfate, phosphate, chelators); type: biochemical
T1 construct: E. coli BL21(DE3), N-terminal 6xHis removed by thrombin
T1 sequence (C6Y1N4 entry or part of it): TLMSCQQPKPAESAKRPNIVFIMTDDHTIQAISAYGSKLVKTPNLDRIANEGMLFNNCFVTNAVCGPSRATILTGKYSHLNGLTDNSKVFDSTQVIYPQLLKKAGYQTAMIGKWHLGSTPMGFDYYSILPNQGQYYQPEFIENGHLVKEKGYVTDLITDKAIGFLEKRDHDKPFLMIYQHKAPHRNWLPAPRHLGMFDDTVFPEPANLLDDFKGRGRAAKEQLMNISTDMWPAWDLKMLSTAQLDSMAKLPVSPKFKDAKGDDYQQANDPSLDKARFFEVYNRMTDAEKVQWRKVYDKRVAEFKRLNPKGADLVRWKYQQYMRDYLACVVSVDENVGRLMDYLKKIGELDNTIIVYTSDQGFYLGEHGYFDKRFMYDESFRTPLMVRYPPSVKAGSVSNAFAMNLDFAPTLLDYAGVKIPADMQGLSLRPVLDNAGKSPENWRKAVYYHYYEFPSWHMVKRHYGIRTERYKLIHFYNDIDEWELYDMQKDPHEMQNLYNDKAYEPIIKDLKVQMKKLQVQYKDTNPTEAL
Protocol: Results are normalized to 0.0 M NaCl added (which is shown as 100%). 6-O-sulfatase (●); N-sulfamidase (◯). […] Results for 6-O-sulfatase are represented by a solid line; results for N-sulfamidase are represented by a dashed line. […] Log scale for inhibitor concentration, [I]. […] Relative activities (% desulfation) were measured over a pH range of 4-8 using three buffers: sodium acetate (●), MES (◯) and MOPS (▴).
Open bars (no divalent metals added); black bars (1 mM EDTA added); light gray bars (1 mM divalent metal); stippled gray bars (5 mM divalent metal). […] Enzyme kinetics were measured for the 6-O-sulfatase (FIG. 8C) and N-sulfamidase (FIG. 8D) as described in Materials and Methods at varying concentrations of Ca^+2 or in the presence of 1 mM EDTA. Substrate saturation plots were fitted to pseudo first-order Michaelis-Menten kinetics by non-linear regression analyses. 0.5 mM Ca^+2 (●), 1 mM Ca^+2 (◯), 5 mM Ca^+2 (▪), 1 mM EDTA (Δ).
Indirect measurement of enzyme activity was also made using a fluorimetrically-based plate assay in which the prerequisite desulfation of the appropriate glucopyranoside 1→4 methlybelliferone substrate by either the 6-O-sulfatase or N-sulfamidase was coupled to the glucosidase-mediated hydrolysis of the stereo-specific 1→4 glycosidic linkage between the pyranose ring and the adjoining fluorophore. Release of the free fluorophore (4-MU) was monitored spectroscopically as described above for the arylsulfatase assay using 4-MU sulfate. The two sulfatase assays differed in the choice of substrate in accordance to their specificity as well as the glucosidase added during the second, rate-limiting step. […] Reaction conditions were optimized to satisfy three related criteria: 1) linear readout of fluorescent signal which is directly proportional to sulfatase activity; 2) quantitative release of 4-MU by glucosidase activity under every biochemical condition examined and; 3) negligible fluorescent quenching of the free chromophore. […]

[2] = molecular target: T2, Flavobacterium heparinum N-sulfamidase (ORF C), recombinant, NH2-terminal truncation lacking signal sequence, SEQ ID NO: 4 (Pedobacter heparinus, UniProt C6Y1N3); assay: Inhibition of N-sulfamidase activity (sulfate, phosphate, chelators); type: biochemical
T2 construct: E. coli BL21(DE3), N-terminal 6xHis removed by thrombin
T2 sequence (C6Y1N3 entry or part of it): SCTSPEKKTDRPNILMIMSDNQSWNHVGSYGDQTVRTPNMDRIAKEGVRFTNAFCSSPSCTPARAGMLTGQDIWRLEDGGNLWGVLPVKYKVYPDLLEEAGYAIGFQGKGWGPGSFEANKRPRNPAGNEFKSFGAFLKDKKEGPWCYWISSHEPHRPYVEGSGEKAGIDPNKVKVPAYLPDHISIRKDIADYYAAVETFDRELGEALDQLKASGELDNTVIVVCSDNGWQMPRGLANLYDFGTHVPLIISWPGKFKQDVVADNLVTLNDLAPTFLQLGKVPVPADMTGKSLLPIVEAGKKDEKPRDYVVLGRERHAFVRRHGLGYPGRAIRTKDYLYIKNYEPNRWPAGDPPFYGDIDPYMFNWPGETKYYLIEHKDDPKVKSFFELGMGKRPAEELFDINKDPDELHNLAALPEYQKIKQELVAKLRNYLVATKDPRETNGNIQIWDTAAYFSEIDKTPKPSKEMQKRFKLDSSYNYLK
Protocol: Results are normalized to 0.0 M NaCl added (which is shown as 100%). […] Relative activities (% desulfation) were measured over a pH range of 4-8 using three buffers: sodium acetate (●), MES (◯) and MOPS (▴).
Enzyme kinetics were measured for the 6-O-sulfatase (FIG. 8C) and N-sulfamidase (FIG. 8D) as described in Materials and Methods at varying concentrations of Ca^+2 or in the presence of 1 mM EDTA. Substrate saturation plots were fitted to pseudo first-order Michaelis-Menten kinetics by non-linear regression analyses.
Indirect measurement of enzyme activity was also made using a fluorimetrically-based plate assay in which the prerequisite desulfation of the appropriate glucopyranoside 1→4 methlybelliferone substrate by either the 6-O-sulfatase or N-sulfamidase was coupled to the glucosidase-mediated hydrolysis of the stereo-specific 1→4 glycosidic linkage between the pyranose ring and the adjoining fluorophore. Release of the free fluorophore (4-MU) was monitored spectroscopically as described above for the arylsulfatase assay using 4-MU sulfate. The two sulfatase assays differed in the choice of substrate in accordance to their specificity as well as the glucosidase added during the second, rate-limiting step. For the 6-O-sulfatase, the hydrolysis of the substrate 4-MU-β-D-GlcNAc,6S at the 6-OH position was coupled to β-glucosidase purified from sweet almonds (MP Biomedicals, Solon, Ohio, Catalog No. 195197). Likewise, N-sulfamidase hydrolysis of 4-MU-α-D-GlcNS at the 2-amino position was coupled to α-glucosidase (MP Biomedicals, Catalog No. 153487). […] The presumption of the first (sulfatase) activity being the rate-limiting step was established experimentally. Reaction conditions were optimized to satisfy three related criteria: 1) linear readout of fluorescent signal which is directly proportional to sulfatase activity; 2) quantitative release of 4-MU by glucosidase activity under every biochemical condition examined and; 3) negligible fluorescent quenching of the free chromophore.
Coupled N-sulfamidase assay was generally described for the 6-O-sulfatase, but with the following modifications: 4-MU-GlcNS as substrate, 50 mM sodium acetate at pH 6.0 (instead of 5.5) and 1 μM enzyme. For the second enzyme step, 5 units of α-glucosidase were added. Enzyme incubation was carried out for 22 hours at 37° C. […] All other reaction conditions were as described for the coupled 6-O-sulfatase/β-glucosidase assay.
Having identified chromogenic substrates for each recombinant sulfatase, these substrates were also used to further develop a fluorescence-based plate assay as the means to define the optimal in vitro reaction conditions for each sulfatase.

O=C(O)CN(CCOCCOCCN(CC(=O)O)CC(=O)O)CC(=O)O [EGTA]
effect on 6-O-sulfatase specific activity ([1]; EGTA, same conditions as N-sulfamidase (5 mM Ca^2+)): no appreciable effect

phosphate
inhibition of N-sulfamidase by sulfate or phosphate [2]: largely uninhibited; also recorded: not apparently inhibited

O=S(=O)(O)O [sulfate]
inhibition of N-sulfamidase by sulfate or phosphate [2]: largely uninhibited; also recorded: not apparently inhibited | IC50 ([1]; normalized to 0 sulfate or phosphate added, read-out: concentration for 50% inhibition of 6-O-sulfatase activity): ~20 mM

O=C(O)CN(CCN(CC(=O)O)CC(=O)O)CC(=O)O [EDTA, ethylenediaminetetracetic acid]
N-sulfamidase activity in the presence of EDTA ([2]; 1 mM EDTA): lack of activity | 6-O-sulfatase activity in the presence of EDTA ([1]; 1 mM EDTA): somewhat active
